According to patent US20210275419A1, “Personal Care Compositions” (Colgate-Palmolive Company, priority 2020, published 2021):

Test system: tyrosinase
Test: tyrosinase inhibitor screening kit (Sigma Aldrich, MAK 257 Kit)
Assay type: biochemical
Details: Example 4; 0.156 wt. %
Protocol: (§1) The anti-tyrosinase activity of an exemplary composition of the present invention was compared to the anti-tyrosinase activity of individual short chain fatty acids. Assays were performed using a tyrosinase inhibitor screening kit from Sigma Aldrich; and following the manufacturer's protocol. The results of these experiments are described in Table 1 (below).
as §1, with “Aldrich (MAK 257 Kit);” for “Aldrich;”, “4” for “1”, “(below). […]” for “(below).”
Peels were diluted 1000× in buffer to prepare 0.1% working stock. […] The pH of all test samples and dilutions was measured before and after tyrosinase assay to exclude any effect of acid on the enzyme activity. […] LMP peels containing various concentrations of pyruvic acid at pH 2.5 (“R1 Peels”); LMP peels which were identically formulated to the R1 Peels, but with pH buffered to 3.6 (“R2 Peels”); and LMP′ peels which were identically formulated to the R2 Peels, other than the replacement of pyruvic acid with sodium pyruvate (“R3 Peels”), were all evaluated.

% Tyrosinase Inhibition: 0.06%
Structure (SMILES): O=C(O)C(O)c1ccccc1 (stereo not shown) [Mandelic Acid (M), Mandelic Acid]
